Measured values taken from patent US20120128667A1 (ONCOZYME PHARMA INC., priority 2009, published 2012).
Several values for one entry are separate records, joined by “and”; a condition that tells them apart may be missing. Identical values can stand only once. Entries after “also recorded” stand apart in the source; their conditions may differ. Like-named read-outs stand apart in the source and are kept apart here.

Columns and labels:
[1] = tested on: H661 (lung cancer (carcinoma)); experiment: cells; conditions: for Percentage of cells killed: H661; for CC50: Homo sapiens
Procedure: (§1) Cell Survival-MTT assay: The MTT (3-[4,5-Dimethylthiazol-2-yl]-2,5 diphenyl tertrazolim bromide) method of determining cell growth/cytotoxicity was used to determine cell survival. MTT is a tetrazolium salt that binds to b mitochondrial dehydrogenases of living cells. Binding converts yellow, water soluble MTT to an insoluble, purple formazan crystal. The crystals are solubilized with a 50% N,N-dimethylformamide (vol/vol), 20% SDS (wt/vol) solution (pH 4.7), and absorbance is determined at a wavelength of 570 nm. Unbound MTT is not detectable at this wavelength. The amount of bound MTT measured in the assay is proportional to the number of live cells present. (Niks and Otto 1990: “Towards an optimized MTT assay,” J. Immunol. Methods. 130, 149-151, Hussain et al. 1993; “A new approach for measurement of cytotoxicity using colorimetric assay,” J. Immunol. Methods. 160, 89-96).
(§2) Cells were harvested from cell cultures using the standard protocol (Trypsin/EDTA). The cells (1000 to 5000 cells in 50 μl of solution depending on cell type used) were then plated and incubated overnight at 37° C. before the addition of the agent or combination of agents.) After 2 days of incubation at 37° C., 10 μl of a 5 mg/ml solution of MTT was then added to all the wells and to a media control well. The plates were further incubated for 4 hours. A 100 μl of MTT solubilization buffer was added and the plates were incubated overnight at 37° C. The plates were then read on the ELISA plate reader with absorbance at 570 nm and a reference at 630 nm.
(§3) The effects of combinations were tested on three representative cancer cell lines: H661 (lung cancer (carcinoma)), MCF-7 (breast cancer (adenocarcinoma, pleural effusion)), and HT29 (colon cancer (adenocarcinoma, primary tumor)). Initial assays were carried out to determine the concentrations at which taxol, oxaliplatin, gemcitabine, or CPT 11 (also known as irinotecan) killed approximately 10% of the cells under investigation.

[2] = tested on: MCF-7 (breast cancer (adenocarcinoma, pleural effusion)); experiment: cells; conditions: for Percentage of cells killed: MCF7; for CC50: Homo sapiens
Procedure: as §1, §2, §3

[3] = tested on: HT29 (colon cancer (adenocarcinoma, primary tumor)); experiment: cells; conditions: for Percentage of cells killed: HT29; for CC50: Homo sapiens
Procedure: as §1, §2, §3

[4] = injected slowly into patients; cited from earlier work
[5] = tested on: BxPC3 human pancreas xenograft; conditions: IP bi-weekly; Pentamidine 45 mg/kg, Gemcitabine 150 mg/kg
Procedure: BxPC3 cells were transplanted subcutaneously into the flank of each animal as a suspension of tumor cells (5×10^6 cells in 0.1 mL in PBS) on Jan. […] Transplantation was performed under a laminar airflow hood. […] Animals were labeled using the “ear punching” method so that for each group, all 10 animals could be distinguished. Each group of 10 mice was housed in 2 separate cages of 5 mice each; animal numbers 1 to 5 were housed in Cage A and animal numbers 6 to 10 were housed in Cage B.
Prior to every dosing injection, each animal was weighed and received their respective formulations. […] Mice in group 3 were treated intraperitoneally, bi-weekly (Tuesday-Friday) at 150 mg/kg with Gemcitabine for eleven weeks. […] The dose volume was 30 mL/kg for mice treated intraperitoneally.
At termination, when the tumor volume of one of the mice in the group reached 1500 mm^3, the whole group was sacrificed, and animals were anaesthetized using isoflurane and sacrificed by cervical dislocation.

[6] = tested on: metastatic colorectal cancer (mCRC); experiment: Phase I/II trial of pentamidine with chemotherapy in previously treated mCRC (Example 5); format: in vivo, human
[7] = repeated dosing; cited from earlier work
metastatic colon cancer = experiment: Phase I/IIa clinical trial colon cancer (Example 3); format: in vivo, human; conditions: interim results; I.V. pentamidine Day -2 and Day -1 before chemotherapy cycle
Source text: (FOLFOX regimens contain oxaliplatin, FOLFIRI regimens contain CPT 11 also known as Irinotecan; and IROX regimens contain Irinotecan and Oxaliplatin). Patients may also receive bevacizumab (Avastin) as part of chemotherapy or cetuximab (Erbitux) or panitumumab (Vectibix). Twenty-two patients are enrolled to date.
A further dose is being given on Day −1.
Both dose escalation and treatment with pentamidine alone are at the discretion of the treating physician.
Almost all patients will have previously failed on their current treatment or a combination thereof.

[8] = 13 evaluable pts, first 2 cycles
[9] = 13 evaluable pts, pentamidine before CTX
[10] = per patient, NCI CTCAEv3, pentamidine + CTX
[11] = preliminary analysis, pentamidine + CTX

CCc1c2c(nc3ccc(OC(=O)N4CCC(N5CCCCC5)CC4)cc13)-c1cc3c(c(=O)n1C2)COC(=O)[C@]3(O)CC [CPT-11, camptothecin-11]
Percentage of cells killed ([1]; CPT-11 3.2 μM alone): 14% | Percentage of cells killed ([2]; CPT-11 3.2 μM alone): 30% | Percentage of cells killed ([3]; CPT-11 3.2 μM alone): 6%

N.N.[Cl][Pt][Cl] [Cis-platinum]
urinary excretion [4]: ≤ 75%

O=C1[O][Pt]2([NH][C@@H]3CCCC[C@H]3[NH]2)[O]C1=O [Oxaliplatin, oxaliplatin]
Percentage of cells killed ([1]; Oxaliplatin 0.25 μM alone): 14% | Percentage of cells killed ([2]; Oxaliplatin 0.25 μM alone): 8% | Percentage of cells killed ([3]; Oxaliplatin 0.25 μM alone): 10%

Nc1ccn([C@@H]2O[C@H](CO)[C@@H](O)C2(F)F)c(=O)n1 [Gemcitabine, gemcitabine]
Percentage of cells killed ([1]; Gemcitabine 0.26 μM alone): 25% | Percentage of cells killed ([2]; Gemcitabine 0.26 μM alone): 23% | Percentage of cells killed ([3]; Gemcitabine 0.26 μM alone): 23%

N=C(N)c1ccc(OCCCCCOc2ccc(C(=N)N)cc2)cc1 [Pentamidine]
effect in the treatment of pancreatic cancer (tumor growth, FIG. 3) [5]: beneficial effect | DLT anorexia, share of pts [6, 8]: 8% | DLT hyperglycaemia, share of pts [6, 8]: 8% | Grade 3/4 AEs attributed to pentamidine: hyperglycaemia [6, 9]: 23% | Grade 3/4 AEs attributed to pentamidine: hyperlipasemia [6, 9]: 15% | activity in mCRC that has progressed on standard lines of treatment (in words) ([6]; Pentamidine & CTX): disease stabilizing activity | Reason for exiting the trial: Fatigue ([6]; initial 17 pts): 12% | Reason for exiting the trial: Fatigue, number of pts ([6]; initial 17 pts): 2 | Reason for exiting the trial: PD ([6]; initial 17 pts): 35% | Reason for exiting the trial: PD, number of pts ([6]; initial 17 pts): 6 | Reason for exiting the trial: Toxicity attributed to pentamidine ([6]; initial 17 pts): 18% | Reason for exiting the trial: Toxicity attributed to pentamidine, number of pts ([6]; initial 17 pts): 3 | Response at patient exit from trial: CR ([6]; initial 17 pts): 0% | Response at patient exit from trial: CR, number of pts ([6]; initial 17 pts): 0 | Response at patient exit from trial: PD ([6]; initial 17 pts): 47% | Response at patient exit from trial: PD, number of pts ([6]; initial 17 pts): 8 | Response at patient exit from trial: PR ([6]; initial 17 pts): 0% | Response at patient exit from trial: PR, number of pts ([6]; initial 17 pts): 0 | Response at patient exit from trial: SD ([6]; initial 17 pts): 35% | Response at patient exit from trial: SD, number of pts ([6]; initial 17 pts): 6 | Best response during treatment: CR ([6]; initial 17 pts, RECIST): 0% | Best response during treatment: CR, number of pts ([6]; initial 17 pts, RECIST): 0 | Best response during treatment: PD ([6]; initial 17 pts, RECIST): 24% | Best response during treatment: PD, number of pts ([6]; initial 17 pts, RECIST): 4 | Best response during treatment: PR ([6]; initial 17 pts, RECIST): 6% | Best response during treatment: PR, number of pts ([6]; initial 17 pts, RECIST): 1 | Best response during treatment: SD ([6]; initial 17 pts, RECIST): 59% | Best response during treatment: SD, number of pts ([6]; initial 17 pts, RECIST): 10 | Attribution to Pentamidine: Anorexia ([6]; per patient): possibly | Attribution to Pentamidine: Diarrhea ([6]; per patient): No (2×) and possibly | Attribution to Pentamidine: Elevated Lipase ([6]; per patient): posssibly; also recorded: definitely | Attribution to Pentamidine: Fainting/syncope ([6]; per patient): No | Attribution to Pentamidine: General deterioration ([6]; per patient): No | Attribution to Pentamidine: Hand-foot reaction ([6]; per patient): No | Attribution to Pentamidine: Neutropenia ([6]; per patient): possibly | Attribution to Pentamidine: Urinary tract infection ([6]; per patient): No | AE Grade: Anorexia [6, 10]: 3 | AE Grade: Diarrhea [6, 10]: 3 | AE Grade: Elevated Lipase [6, 10]: 3 | AE Grade: Fainting/syncope [6, 10]: 3 | AE Grade: General deterioration [6, 10]: 4 | AE Grade: Hand-foot reaction [6, 10]: 3 | AE Grade: Neutropenia [6, 10]: 3 | AE Grade: Urinary tract infection [6, 10]: 3 | toxicity of pentamidine with CTX (in words) ([6]; preliminary analysis): consistent with known side effects of pentamidine; also recorded: manageable | Median OS time [6, 11]: has not yet been reached | median PFS time [6, 11]: 4.4 months | time after final dose at which pentamidine was detected in tissue [7]: 25 days | overall survival compared with best current therapy (metastatic colon cancer): significantly enhances overall survival | Percentage of cells killed ([1]; Pentamidine 0.15 mM alone): 50% | CC50 ([1]; NCI-H661, 48 h, read-out: LC50 of Pentamidine): 150 µM | CC50 ([1]; NCI-H661, read-out: LC50 of Pentamidine With CPT11 (0.25 μM)): 3 µM | CC50 ([1]; NCI-H661, read-out: LC50 of Pentamidine With Gemcitabine (0.26 μM)): 27 µM | CC50 ([1]; NCI-H661, read-out: LC50 of Pentamidine With Oxaliplatin (0.25 μM)): 3 µM | CC50 ([1]; NCI-H661, read-out: LC50 of Pentamidine with Taxol (2 μM)): 7 µM | CC50 ([2]; MCF7, 48 h, read-out: LC50 of Pentamidine): 150 µM | CC50 ([2]; MCF7, read-out: LC50 of Pentamidine With CPT11 (0.25 μM)): 26 µM | CC50 ([2]; MCF7, read-out: LC50 of Pentamidine With Gemcitabine (0.26 μM)): 66 µM | CC50 ([2]; MCF7, read-out: LC50 of Pentamidine With Oxaliplatin (0.25 μM)): 9 µM | CC50 ([2]; MCF7, read-out: LC50 of Pentamidine with Taxol (2 μM)): 60 µM | Percentage of cells killed ([2]; Pentamidine 0.15 mM alone): 50% | Percentage of cells killed ([3]; Pentamidine 0.15 mM alone): 13% | CC50 ([3]; HT-29, 48 h, read-out: LC50 of Pentamidine): 270 µM | CC50 ([3]; HT-29, read-out: LC50 of Pentamidine With CPT11 (0.25 μM)): 12 µM | CC50 ([3]; HT-29, read-out: LC50 of Pentamidine With Gemcitabine (0.26 μM)): 30 µM | CC50 ([3]; HT-29, read-out: LC50 of Pentamidine With Oxaliplatin (0.25 μM)): 9 µM | CC50 ([3]; HT-29, read-out: LC50 of Pentamidine with Taxol (2 μM)): 130 µM
